Data reported in patent publication US12065442B2, “Tropomyosin receptor kinase (TRK) degradation compounds and methods of use” (Cullgen (Shanghai), Inc., priority 2018, dated 2024).
Read-outs that look alike come from different tables or passages of the source.

What was measured:
KM12 cells = experiment: Cell viability assay (CellTiter-Glo) in KM12 cells; type: cell-based; conditions: Homo sapiens, 72 h, KM12 cell viability, CellTiter-Glo, 3 days, read-out: IC50
TPM3-TRKA fusion protein [1] = molecular target: T1, TPM3-TRKA fusion protein (Homo sapiens, UniProt P04629+P06753+Q96SW2); experiment: Immunoblotting of TPM3-TRKA in KM12 subcutaneous xenograft tumors; type: in vivo, Athymic nude mice; design: The resulted chimeric proteins always retain the kinase domain of TRK proteins; TPM3 (N-terminal fusion partner, natural gene fusion); from tissue; host or cells: KM12 subcutaneous xenograft tumors in athymic nude mice; conditions: for TPM3-TRKA degradation in KM12 subcutaneous tumors: intraperitoneal or oral administration, eight hours after administration (FIG. 10)
Method: In addition to cultured cells, athymic nude mice bearing KM12 subcutaneous xenograft tumors at the right flank were intraperitoneally treated with 10, 20, or 50 mg/kg CPD-053, CPD-027, or CPD-060. Four hours after drug administration, animals were sacrificed for immunoblotting of TPM3-TPKA in homogenized xenograft tumor masses. The label “a” or “b” represents two different samples of the same xenograft tumor.
Athymic nude mice bearing KM12 subcutaneous xenograft tumors at the right flank were intraperitoneally treated with 10, 20, or 50 mg/kg CPD-053, CPD-027, or CPD-060, as indicated in FIG. 3. Four hours after drug administration, animals were sacrificed for immunoblotting of TPM3-TPKA in homogenized xenograft tumor chunks. The label “a” or “b” represents two different chunks of the same xenograft tumor.
Athymic nude mice bearing KM12 subcutaneous xenograft tumors at the right flank were intraperitoneally or orally treated with bivalent compounds at indicated dose. Eight hours after drug administration, animals were sacrificed for immunoblotting of TPM3-TPKA in homogenized xenograft tumor samples.
(§1) Cultured cells were washed with cold PBS once and lysed in cold RIPA buffer supplemented with protease inhibitors and phosphatase inhibitors (Beyotime Biotechnology). The solutions were then incubated at 4° C. for 30 minutes with gentle agitation to fully lyse cells. For tumor tissues, tumors were cut into small pieces, milled with cold RIPA buffer using a mechanical homogenizer and lysed for 1 hour at 4° C. Cell lysates were centrifuged at 13,000 rpm for 10 minutes at 4° C. and pellets were discarded. Total protein concentrations in the lysates were determined by BCA assays (Beyotime Biotechnology). Cell lysates were mixed with Laemmli loading buffer to 1× and heated at 99° C. for 5 min. Proteins were resolved on SDS-PAGE and visualized by chemiluminescence. Images were taken by a ChemiDoc MP Imaging system (Bio-Rad). Protein bands were quantitated using the software provided by Bio-Rad.
All animal experiments were performed under protocols approved by the Institutional Animal Care and Use Committee (IACUC) of Cullgen. Athymic nude mice (male, 5-weeks old) received 5 million KM12 cells subcutaneously inoculated at the right flank site. Ten days following inoculation, tumors were approximately 500 mm3 in size. Tumor-bearing mice were treated intraperitoneally with vehicle or bivalent compounds at indicated doses. Tumor sizes and body weight of mice were measured every 2 days. In addition, immunoblotting assays were employed to assess the levels of TRKA fusion proteins in xenograft tumors around 500 mm^3 in size following drug administration. At indicated hours after drug administration, selected mice were sacrificed, tumors were resected. Small chunks of tumors were homogenized for immunoblotting of TPM3-TPKA and other proteins as indicated.

TPM3-TRKA fusion protein [2] = molecular target: T1, TPM3-TRKA fusion protein; experiment: Immunoblotting of TPM3-TRKA fusion protein in KM12 cells; type: cell-based; design: The resulted chimeric proteins always retain the kinase domain of TRK proteins; TPM3 (N-terminal fusion partner, natural gene fusion); endogenous in cells; host or cells: KM12 colon cancer cells
Method: Specific exemplary bivalent compounds were characterized in KM12 cells. […] Cells were collected, lysed and subject to immunoblotting using an antibody specific to TRK proteins. GAPDH was included as the loading control. DMSO was used as the negative control.
KM12 cells were treated with DMSO or indicated compounds at 100 nM for 16 hours.
KM12 cells were treated with CPD-027, CPD-053, and CPD-060 at 100 nM for indicated incubation time. […]
(§2) KM12 or HEL cells were treated with a dose range of compound TR-123 or TR-123-negative. The latter lost binding to cereblon (CRBN) due to a chemical modification.
KM12 or HEL cells were treated with a single dose of compound TR-123 or combination with MG-132, Bortezomib, MLN4924 or Pomalidomide. […]
as §1

wild type TRKA protein = molecular target: T2, wild type TRKA protein (Homo sapiens, UniProt P04629); experiment: Immunoblotting of wild type TRKA protein in HEL cells; type: cell-based; conditions: dose range (FIG. 8B)
T2 construct: immunoblot of wild type TRKA protein expressed by HEL cells; endogenous in cells; host or cells: HEL cells
Method: as §2
KM12 or HEL cells were treated with a single dose of compound TR-123 or combination with MG-132, Bortezomib, MLN4924 or Pomalidomide.
as §1

T1 sequence (P06753+P04629 fused): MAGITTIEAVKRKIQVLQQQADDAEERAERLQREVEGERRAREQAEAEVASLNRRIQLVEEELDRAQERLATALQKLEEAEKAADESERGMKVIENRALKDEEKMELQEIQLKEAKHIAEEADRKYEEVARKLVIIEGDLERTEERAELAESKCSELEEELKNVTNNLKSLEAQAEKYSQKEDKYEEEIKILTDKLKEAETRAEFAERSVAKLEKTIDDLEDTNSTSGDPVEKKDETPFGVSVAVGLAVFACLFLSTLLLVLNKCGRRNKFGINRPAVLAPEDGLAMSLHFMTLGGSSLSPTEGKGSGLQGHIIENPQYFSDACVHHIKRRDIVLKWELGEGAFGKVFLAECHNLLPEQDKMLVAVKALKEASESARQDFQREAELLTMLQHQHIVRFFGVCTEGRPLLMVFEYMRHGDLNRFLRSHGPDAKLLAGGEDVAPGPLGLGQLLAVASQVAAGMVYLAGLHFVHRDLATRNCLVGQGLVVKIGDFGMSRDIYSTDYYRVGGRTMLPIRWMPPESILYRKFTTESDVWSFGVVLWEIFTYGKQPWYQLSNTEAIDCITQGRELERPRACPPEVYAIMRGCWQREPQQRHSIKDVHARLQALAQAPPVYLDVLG
T1 sequence (Q96SW2 whole entry, the tested form may be a part): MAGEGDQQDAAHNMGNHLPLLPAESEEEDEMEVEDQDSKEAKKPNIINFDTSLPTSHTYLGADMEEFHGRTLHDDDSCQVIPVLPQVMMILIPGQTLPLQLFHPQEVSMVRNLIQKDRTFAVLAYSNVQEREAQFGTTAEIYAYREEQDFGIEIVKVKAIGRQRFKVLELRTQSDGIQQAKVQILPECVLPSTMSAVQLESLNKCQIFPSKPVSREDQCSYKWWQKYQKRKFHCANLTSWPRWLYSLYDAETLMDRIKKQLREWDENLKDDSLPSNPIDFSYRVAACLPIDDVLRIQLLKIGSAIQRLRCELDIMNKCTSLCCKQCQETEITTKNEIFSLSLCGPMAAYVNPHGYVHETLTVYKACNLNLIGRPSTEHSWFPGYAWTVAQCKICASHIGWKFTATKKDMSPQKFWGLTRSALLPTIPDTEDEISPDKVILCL
T1 sequence (Q16531 whole entry partner, the tested form may be a part): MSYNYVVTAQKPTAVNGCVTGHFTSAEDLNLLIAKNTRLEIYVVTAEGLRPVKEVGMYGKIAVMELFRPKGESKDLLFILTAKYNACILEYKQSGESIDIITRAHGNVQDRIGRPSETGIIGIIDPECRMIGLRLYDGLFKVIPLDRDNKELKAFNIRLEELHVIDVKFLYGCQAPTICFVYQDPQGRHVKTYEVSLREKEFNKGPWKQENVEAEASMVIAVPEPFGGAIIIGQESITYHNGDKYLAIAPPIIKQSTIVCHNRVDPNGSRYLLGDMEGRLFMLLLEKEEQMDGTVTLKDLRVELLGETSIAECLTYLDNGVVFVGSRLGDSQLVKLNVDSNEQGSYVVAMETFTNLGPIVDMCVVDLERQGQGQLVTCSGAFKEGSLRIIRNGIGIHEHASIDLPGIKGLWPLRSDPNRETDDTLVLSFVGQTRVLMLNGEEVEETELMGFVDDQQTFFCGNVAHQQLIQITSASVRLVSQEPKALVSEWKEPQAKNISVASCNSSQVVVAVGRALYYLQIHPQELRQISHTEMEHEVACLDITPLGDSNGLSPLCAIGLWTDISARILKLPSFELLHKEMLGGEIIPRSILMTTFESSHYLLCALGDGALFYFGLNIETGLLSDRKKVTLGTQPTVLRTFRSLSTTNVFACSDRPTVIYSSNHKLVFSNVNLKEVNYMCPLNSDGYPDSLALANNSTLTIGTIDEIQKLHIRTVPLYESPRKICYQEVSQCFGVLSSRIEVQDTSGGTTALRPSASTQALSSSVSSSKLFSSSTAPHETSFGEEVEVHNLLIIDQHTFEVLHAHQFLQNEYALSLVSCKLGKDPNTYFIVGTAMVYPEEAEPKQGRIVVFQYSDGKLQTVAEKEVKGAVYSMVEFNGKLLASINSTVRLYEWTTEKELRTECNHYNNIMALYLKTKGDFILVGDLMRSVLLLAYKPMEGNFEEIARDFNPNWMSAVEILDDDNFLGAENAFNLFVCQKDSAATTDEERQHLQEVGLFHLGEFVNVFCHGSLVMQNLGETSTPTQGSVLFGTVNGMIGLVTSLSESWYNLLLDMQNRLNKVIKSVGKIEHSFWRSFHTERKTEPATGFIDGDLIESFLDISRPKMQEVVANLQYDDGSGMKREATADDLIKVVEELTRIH
T2 sequence (P04629 33-796): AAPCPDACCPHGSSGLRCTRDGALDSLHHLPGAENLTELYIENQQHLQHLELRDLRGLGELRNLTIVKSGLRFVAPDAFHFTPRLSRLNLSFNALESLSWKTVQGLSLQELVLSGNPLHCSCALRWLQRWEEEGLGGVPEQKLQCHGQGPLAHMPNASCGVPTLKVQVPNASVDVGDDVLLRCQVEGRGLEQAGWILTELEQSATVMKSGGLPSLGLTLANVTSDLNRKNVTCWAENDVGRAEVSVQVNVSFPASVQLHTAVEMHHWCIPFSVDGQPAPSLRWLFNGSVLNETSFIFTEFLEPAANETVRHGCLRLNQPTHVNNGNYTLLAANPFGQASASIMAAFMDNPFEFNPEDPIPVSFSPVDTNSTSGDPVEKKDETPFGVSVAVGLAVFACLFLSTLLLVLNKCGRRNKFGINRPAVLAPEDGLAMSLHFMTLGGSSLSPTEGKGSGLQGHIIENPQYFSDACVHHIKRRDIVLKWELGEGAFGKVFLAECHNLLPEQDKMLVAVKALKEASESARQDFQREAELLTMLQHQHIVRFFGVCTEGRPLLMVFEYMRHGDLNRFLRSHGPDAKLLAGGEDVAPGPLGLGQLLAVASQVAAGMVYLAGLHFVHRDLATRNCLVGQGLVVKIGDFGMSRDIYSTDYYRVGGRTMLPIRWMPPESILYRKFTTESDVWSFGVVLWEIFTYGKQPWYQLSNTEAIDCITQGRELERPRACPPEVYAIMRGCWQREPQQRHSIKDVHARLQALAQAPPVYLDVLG

Row | Compound | IC50 (KM12 cells; Table 3) | TPM3-TRKA degradation in KM12 subcutaneous tumors (TPM3-TRKA fusion protein [1]) | also measured
1 | O=C1CCC(N2C(=O)c3cccc(NCCOCCC(=O)N4CCN(c5cccc(-c6cnc7ccc(N8CCC[C@@H]8c8cccc(F)c8)nn67)n5)CC4)c3C2=O)C(=O)N1 (stereo partly drawn) [CPD-027, 2-(2,6-Dioxopiperidin-3-yl)-4-((2-(3-(4-(6-(6-((R)-2-(3-fluorophenyl)pyrrolidin-1-yl)imidazo[1,2-b]pyridazin-3-yl)pyridin-2-yl)piperazin-1-yl)-3-oxopropoxy)ethyl)amino)isoindoline-1,3-dione] |  |  | IC50 (KM12 cells; Table 2): 4.9 nM; TPM3-TRKA protein levels in KM12 subcutaneous xenograft tumors (TPM3-TRKA fusion protein [1]; 10, 20, or 50 mg/kg intraperitoneally, single dose, four hours after administration (FIG. 3)): significantly reducing TPM3-TRKA protein levels; time after adding compound at which significant degradation of TPM3-TRKA was detected (TPM3-TRKA fusion protein [2]; 100 nM (FIG. 2)): 15 min; TPM3-TRKA protein levels (TPM3-TRKA fusion protein [2]; 100 nM, 16 hours (FIG. 1A-1C)): particularly effective in reducing TPM3-TRKA protein levels; TPM3-TRKA protein levels, time course (TPM3-TRKA fusion protein [2]; 100 nM, indicated incubation time (FIG. 2)): rapidly reduced TPM3-TRKA protein levels
2 | CN1C(=O)CCC(N2C(=O)c3ccc(NCC(=O)N4CCN(c5cccc(-c6cnc7ccc(N8CCC[C@@H]8c8cccc(F)c8)nn67)n5)CC4)cc3C2=O)C1=O (stereo partly drawn) [TR-123-negative, 5-((2-(4-(6-(6-((R)-2-(3-Fluorophenyl)pyrrolidin-1-yl)imidazo[1,2-b]pyridazin-3-yl)pyridin-2-yl)piperazin-1-yl)-2-oxoethyl)amino)-2-(1-methyl-2,6-dioxopiperidin-3-yl)isoindoline-1,3-dione] |  |  | TRKA protein levels (TPM3-TRKA fusion protein [2]; dose range (FIG. 8A)): none or less effects on TRKA protein levels; TRKA protein levels (wild type TRKA protein): none or less effects on TRKA protein levels
3 | O=C1CCC(N2C(=O)c3ccc(NCCCN4CCN(c5cccc(-c6cnc7ccc(N8CCC[C@@H]8c8cccc(F)c8)nn67)n5)CC4)cc3C2=O)C(=O)N1 (stereo partly drawn) [TR-171, 2-(2,6-Dioxopiperidin-3-yl)-5-((3-(4-(6-(6-((R)-2-(3-fluorophenyl)pyrrolidin-1-yl)imidazo[1,2-b]pyridazin-3-yl)pyridin-2-yl)piperazin-1-yl)propyl)amino)isoindoline-1,3-dione] | 5.2 nM | exhibited the activities to induce TPM3-TRKA degradation | 
4 | O=C1CCC(N2C(=O)c3ccc(CCCN4CCN(c5cccc(-c6cnc7ccc(N8CCC[C@@H]8c8cccc(F)c8)nn67)n5)CC4)cc3C2=O)C(=O)N1 (stereo partly drawn) [TR-172, 2-(2,6-dioxopiperidin-3-yl)-5-(3-(4-(6-(6-((R)-2-(3-fluorophenyl)pyrrolidin-1-yl)imidazo[1,2-b]pyridazin-3-yl)pyridin-2-yl)piperazin-1-yl)propyl)isoindoline-1,3-dione] | 2 nM | exhibited the activities to induce TPM3-TRKA degradation | 
5 | O=C1CCC(N2C(=O)c3ccc(OCCN4CCN(c5cccc(-c6cnc7ccc(N8CCC[C@@H]8c8cccc(F)c8)nn67)n5)CC4)cc3C2=O)C(=O)N1 (stereo partly drawn) [TR-173, 2-(2,6-dioxopiperidin-3-yl)-5-(2-(4-(6-(6-((R)-2-(3-fluorophenyl)pyrrolidin-1-yl)imidazo[1,2-b]pyridazin-3-yl)pyridin-2-yl)piperazin-1-yl)ethoxy)isoindoline-1,3-dione] | 8.9 nM | exhibited the activities to induce TPM3-TRKA degradation | 
6 | O=C1CCC(N2C(=O)c3ccc(NCCOCCOCCN4CCN(c5cccc(-c6cnc7ccc(N8CCC[C@H]8c8cccc(F)c8)nn67)n5)CC4)cc3C2=O)C(=O)N1 (stereo partly drawn) [TR-177, 2-(2,6-Dioxopiperidin-3-yl)-5-((2-(2-(2-(4-(6-(6-((S)-2-(3-fluorophenyl)pyrrolidin-1-yl)imidazo[1,2-b]pyridazin-3-yl)pyridin-2-yl)piperazin-1-yl)ethoxy)ethoxy)ethyl)amino)isoindoline-1,3-dione] | 1.9 nM | exhibited the activities to induce TPM3-TRKA degradation | 
